Experiments:
MV4-11 cells = experiment: MV4-11 cellular proliferative assay, Assay Format B (CTG 2.0, 168 h); assay type: cell-based; conditions: Homo sapiens, 168 h (7 days), CTG 2.0, read-out: IC50 (MV4-11 cellular proliferative assay, Assay format B)
Outline: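 MV4-11 cells seeded overnight in IMDM + 10% FBS, then exposed to 10-point, 3-fold dilutions from 1 uM or 100 nM top concentration (0.3% DMSO final) for 168 h at 37 °C. CTG 2.0 luminescence read; % viability vs DMSO control fitted by four-parameter logistic regression.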

MLLT1 = molecular target: T1, MLLT1 (Homo sapiens, UniProt Q03111); experiment: MLLT1 degradation assay in MV4-11 cells (JESS chemiluminescent detection), three concentrations, 24 h; assay type: cell-based; conditions: with respect to DMSO control
T1 construct: host or cells: MV4-11
T1 sequence (Q03111 1-559): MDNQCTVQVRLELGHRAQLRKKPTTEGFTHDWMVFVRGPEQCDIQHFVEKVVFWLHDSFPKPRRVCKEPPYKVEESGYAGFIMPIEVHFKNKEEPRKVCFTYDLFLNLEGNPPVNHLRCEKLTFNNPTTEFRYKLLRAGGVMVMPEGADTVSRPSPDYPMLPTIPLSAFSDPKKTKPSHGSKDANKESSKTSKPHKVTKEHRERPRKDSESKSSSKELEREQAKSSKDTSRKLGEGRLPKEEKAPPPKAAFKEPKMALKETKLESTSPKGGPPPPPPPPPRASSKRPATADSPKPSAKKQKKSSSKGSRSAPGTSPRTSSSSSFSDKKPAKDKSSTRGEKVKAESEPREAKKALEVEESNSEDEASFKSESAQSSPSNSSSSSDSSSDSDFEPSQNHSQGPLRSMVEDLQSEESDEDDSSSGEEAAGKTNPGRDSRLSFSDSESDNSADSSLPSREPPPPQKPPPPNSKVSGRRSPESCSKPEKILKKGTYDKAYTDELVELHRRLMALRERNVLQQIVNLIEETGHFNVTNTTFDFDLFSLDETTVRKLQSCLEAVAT
Outline: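 MV4-11 cells treated 24 h at 37° C, 5% CO2 with 1000, 100 and 10 nM compound (0.1% DMSO final). MLLT1 quantified by automated capillary chemiluminescent immunodetection; band peak area expressed as % degradation relative to DMSO control.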

| SMILES | IC50 (MV4-11 cells) [nM] | MLLT1% Degradation @ 0.01 μM (MLLT1) | MLLT1% Degradation @ 0.1 μM (MLLT1) | MLLT1% Degradation @ 1 μM (MLLT1) |
| --- | --- | --- | --- | --- |
| CN1CCC[C@@H]1c1cc2cnc(NC(=O)c3ccc(OC4CCN(CC5CCN(c6ccc7c(c6)CN(C6CCC(=O)NC6=O)C7=O)CC5)CC4)cc3)cc2[nH]1 (stereo partly drawn) [Example 143, 4-((1-((1-(2-(2,6-dioxopiperidin-3-yl)-1-oxoisoindolin-5-yl)piperidin-4-yl)methyl)piperidin-4-yl)oxy)-N-(2-((R)-1-methylpyrrolidin-2-yl)-1H-pyrrolo[3,2-c]pyridin-6-yl)benzamide] | ≤ 100 | A (Category A: A ≥ 75% degradation) | A (Category A: A ≥ 75% degradation) | A (Category A: A ≥ 75% degradation) |
| CN1CCC[C@@H]1c1cc2cnc(NC(=O)c3ccc(OC4CCN(CC5CCN(c6cccc7c6C(=O)N(C6CCC(=O)NC6=O)C7=O)CC5)CC4)cc3)cc2[nH]1 (stereo partly drawn) [Example 144, 4-((1-((1-(2-(2,6-dioxopiperidin-3-yl)-1,3-dioxoisoindolin-4-yl)piperidin-4-yl)methyl)piperidin-4-yl)oxy)-N-(2-((R)-1-methylpyrrolidin-2-yl)-1H-pyrrolo[3,2-c]pyridin-6-yl)benzamide] | ≤ 100 | B (Category B: 50% ≤ B < 75% degradation) | A (Category A: A ≥ 75% degradation) | A (Category A: A ≥ 75% degradation) |
| CN1CCC[C@@H]1c1cc2cnc(NC(=O)c3ccc(N4CCC(OCC5CCN(c6cccc7c6CN(C6CCC(=O)NC6=O)C7=O)CC5)CC4)nc3)cc2[nH]1 (stereo partly drawn) [Example 147, 6-(4-((1-(2-(2,6-dioxopiperidin-3-yl)-1-oxoisoindolin-4-yl)piperidin-4-yl)methoxy)piperidin-1-yl)-N-(2-((R)-1-methylpyrrolidin-2-yl)-1H-pyrrolo[3,2-c]pyridin-6-yl)nicotinamide] | ≤ 100 | A (Category A: A ≥ 75% degradation) | A (Category A: A ≥ 75% degradation) | A (Category A: A ≥ 75% degradation) |
| CN1CCC[C@@H]1c1cc2cnc(NC(=O)c3ccc(N4CCC(OC5CCN(c6cccc7c6C(=O)N(C6CCC(=O)NC6=O)C7=O)CC5)CC4)nc3)cc2[nH]1 (stereo partly drawn) [Example 148, 6-(4-((1-(2-(2,6-dioxopiperidin-3-yl)-1,3-dioxoisoindolin-4-yl)piperidin-4-yl)oxy)piperidin-1-yl)-N-(2-((R)-1-methylpyrrolidin-2-yl)-1H-pyrrolo[3,2-c]pyridin-6-yl)nicotinamide] | ≤ 100 | A (Category A: A ≥ 75% degradation) | A (Category A: A ≥ 75% degradation) | A (Category A: A ≥ 75% degradation) |
| CN1CCC[C@@H]1c1cc2cnc(NC(=O)c3ccc(N4CCC(CC#Cc5cccc6c5CN(C5CCC(=O)NC5=O)C6=O)CC4)nn3)cc2[nH]1 (stereo partly drawn) [Example 153, 6-(4-(3-(2-(2,6-dioxopiperidin-3-yl)-1-oxoisoindolin-4-yl)prop-2-yn-1-yl)piperidin-1-yl)-N-(2-((R)-1-methylpyrrolidin-2-yl)-1H-pyrrolo[3,2-c]pyridin-6-yl)pyridazine-3-carboxamide] | ≤ 100 | A (Category A: A ≥ 75% degradation) | A (Category A: A ≥ 75% degradation) | A (Category A: A ≥ 75% degradation) |
| CN1CCC[C@@H]1c1cc2cnc(NC(=O)c3cnc(N4CCC(CC#Cc5cccc6c5CN(C5CCC(=O)NC5=O)C6=O)CC4)cn3)cc2[nH]1 (stereo partly drawn) [Example 154, 5-(4-(3-(2-(2,6-dioxopiperidin-3-yl)-1-oxoisoindolin-4-yl)prop-2-yn-1-yl)piperidin-1-yl)-N-(2-((R)-1-methylpyrrolidin-2-yl)-1H-pyrrolo[3,2-c]pyridin-6-yl)pyrazine-2-carboxamide] | ≤ 100 | A (Category A: A ≥ 75% degradation) | A (Category A: A ≥ 75% degradation) | A (Category A: A ≥ 75% degradation) |
| CN1CCC[C@@H]1c1cc2cnc(NC(=O)c3ccc(N4CCN(CC#Cc5cccc6c5CN(C5CCC(=O)NC5=O)C6=O)CC4)cc3F)cc2[nH]1 (stereo partly drawn) [Example 155, 4-(4-(3-(2-(2,6-dioxopiperidin-3-yl)-1-oxoisoindolin-4-yl)prop-2-yn-1-yl)piperazin-1-yl)-2-fluoro-N-(2-((R)-1-methylpyrrolidin-2-yl)-1H-pyrrolo[3,2-c]pyridin-6-yl)benzamide] | ≤ 100 | A (Category A: A ≥ 75% degradation) | A (Category A: A ≥ 75% degradation) | B (Category B: 50% ≤ B < 75% degradation) |
| CN1CCC[C@@H]1c1cc2cnc(NC(=O)c3cc(F)c(CCCCC#Cc4cccc5c4CN(C4CCC(=O)NC4=O)C5=O)c(F)c3)cc2[nH]1 (stereo partly drawn) [Example 156, 4-(6-(2-(2,6-dioxopiperidin-3-yl)-1-oxoisoindolin-4-yl)hex-5-yn-1-yl)-3,5-difluoro-N-(2-((R)-1-methylpyrrolidin-2-yl)-1H-pyrrolo[3,2-c]pyridin-6-yl)benzamide] | ≤ 100 | A (Category A: A ≥ 75% degradation) | A (Category A: A ≥ 75% degradation) | A (Category A: A ≥ 75% degradation) |
| CN1CCC[C@@H]1c1cc2cnc(NC(=O)c3ccc(OC4CN(CC5CCN(c6ccc7c(c6)C(=O)N(C6CCC(=O)NC6=O)C7=O)CC5)C4)cc3)cc2[nH]1 (stereo partly drawn) [Example 157, 4-((1-((1-(2-(2,6-dioxopiperidin-3-yl)-1,3-dioxoisoindolin-5-yl)piperidin-4-yl)methyl)azetidin-3-yl)oxy)-N-(2-((R)-1-methylpyrrolidin-2-yl)-1H-pyrrolo[3,2-c]pyridin-6-yl)benzamide] | ≤ 100 | B (Category B: 50% ≤ B < 75% degradation) | A (Category A: A ≥ 75% degradation) | A (Category A: A ≥ 75% degradation) |

Results, then the compound that gave them:

| IC50 (MV4-11 cells) [nM] | MLLT1% Degradation @ 0.01 μM (MLLT1) | MLLT1% Degradation @ 0.1 μM (MLLT1) | MLLT1% Degradation @ 1 μM (MLLT1) | SMILES |
| --- | --- | --- | --- | --- |
| ≤ 100 | A (Category A: A ≥ 75% degradation) | A (Category A: A ≥ 75% degradation) | A (Category A: A ≥ 75% degradation) | CN1CCC[C@@H]1c1cc2cnc(NC(=O)c3ccc(N4CCC(OC5CCN(c6cccc7c6CN(C6CCC(=O)NC6=O)C7=O)CC5)CC4)nc3)cc2[nH]1 (stereo partly drawn) [Example 145, 6-(4-((1-(2-(2,6-dioxopiperidin-3-yl)-1-oxoisoindolin-4-yl)piperidin-4-yl)oxy)piperidin-1-yl)-N-(2-((R)-1-methylpyrrolidin-2-yl)-1H-pyrrolo[3,2-c]pyridin-6-yl)nicotinamide] |
| ≤ 100 | A (Category A: A ≥ 75% degradation) | A (Category A: A ≥ 75% degradation) | A (Category A: A ≥ 75% degradation) | CN1CCC[C@@H]1c1cc2cnc(NC(=O)c3ccc(N4CCN(CCCC#Cc5cccc6c5CN(C5CCC(=O)NC5=O)C6=O)CC4)nc3)cc2[nH]1 (stereo partly drawn) [Example 149, 6-(4-(5-(2-(2,6-dioxopiperidin-3-yl)-1-oxoisoindolin-4-yl)pent-4-yn-1-yl)piperazin-1-yl)-N-(2-((R)-1-methylpyrrolidin-2-yl)-1H-pyrrolo[3,2-c]pyridin-6-yl)nicotinamide] |
| ≤ 100 | A (Category A: A ≥ 75% degradation) | A (Category A: A ≥ 75% degradation) | A (Category A: A ≥ 75% degradation) | CN1CCC[C@@H]1c1cc2cnc(NC(=O)c3ccc(OCCCC#Cc4cccc5c4CN(C4CCC(=O)NC4=O)C5=O)nc3)cc2[nH]1 (stereo partly drawn) [Example 150, 6-((5-(2-(2,6-dioxopiperidin-3-yl)-1-oxoisoindolin-4-yl)pent-4-yn-1-yl)oxy)-N-(2-((R)-1-methylpyrrolidin-2-yl)-1H-pyrrolo[3,2-c]pyridin-6-yl)nicotinamide] |
| ≤ 100 | A (Category A: A ≥ 75% degradation) | A (Category A: A ≥ 75% degradation) | A (Category A: A ≥ 75% degradation) | CN1CCC[C@@H]1c1cc2cnc(NC(=O)c3ccc(OCCC4CCN(c5cccc6c5CN(C5CCC(=O)NC5=O)C6=O)CC4)nc3)cc2[nH]1 (stereo partly drawn) [Example 158, 6-(2-(1-(2-(2,6-dioxopiperidin-3-yl)-1-oxoisoindolin-4-yl)piperidin-4-yl)ethoxy)-N-(2-((R)-1-methylpyrrolidin-2-yl)-1H-pyrrolo[3,2-c]pyridin-6-yl)nicotinamide] |

From patent US20260191968A1, “PROTAC DEGRADERS OF MLLT1 AND/OR MLLT3” (DARK BLUE THERAPEUTICS LTD, priority 2024, published 2026)
